# Data from US12409173B2, “Repurposing FDA-approved drugs as a novel cancer therapeutic avenue through inhibition of PRMT5” (priority 2019, dated 2025).
# What was measured:
# PRMT5 = molecular target: T1, PRMT5 (Homo sapiens, UniProt O14744); experiment: AlphaLISA PRMT5 methyltransferase assay (biotin-H4R3 substrate, SAM); assay type: biochemical; details: PRMT5 methyltransferase activity, FIG. 3C; read-out: IC50 binding affinities by AlphaLISA assay
# T1 construct: Flag; made in house; host or cells: 293 cells
# T1 sequence (O14744 whole entry): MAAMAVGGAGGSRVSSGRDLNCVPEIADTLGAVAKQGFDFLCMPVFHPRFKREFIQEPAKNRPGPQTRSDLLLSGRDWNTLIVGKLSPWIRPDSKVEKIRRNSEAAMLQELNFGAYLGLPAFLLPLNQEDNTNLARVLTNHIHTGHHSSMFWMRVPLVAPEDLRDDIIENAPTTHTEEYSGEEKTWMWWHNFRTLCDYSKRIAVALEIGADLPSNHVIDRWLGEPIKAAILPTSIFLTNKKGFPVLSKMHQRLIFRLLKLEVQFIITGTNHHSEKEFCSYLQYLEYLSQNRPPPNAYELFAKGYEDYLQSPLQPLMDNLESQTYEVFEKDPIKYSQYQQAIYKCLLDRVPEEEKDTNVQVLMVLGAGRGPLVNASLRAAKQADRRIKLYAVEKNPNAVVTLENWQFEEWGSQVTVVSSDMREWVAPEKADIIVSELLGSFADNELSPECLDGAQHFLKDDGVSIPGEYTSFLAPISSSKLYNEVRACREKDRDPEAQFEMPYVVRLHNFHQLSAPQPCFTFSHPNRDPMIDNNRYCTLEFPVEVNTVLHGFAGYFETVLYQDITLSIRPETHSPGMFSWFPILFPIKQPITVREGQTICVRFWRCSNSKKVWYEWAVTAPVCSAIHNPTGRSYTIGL
# T1 sequence (Q9BQA1 whole entry partner): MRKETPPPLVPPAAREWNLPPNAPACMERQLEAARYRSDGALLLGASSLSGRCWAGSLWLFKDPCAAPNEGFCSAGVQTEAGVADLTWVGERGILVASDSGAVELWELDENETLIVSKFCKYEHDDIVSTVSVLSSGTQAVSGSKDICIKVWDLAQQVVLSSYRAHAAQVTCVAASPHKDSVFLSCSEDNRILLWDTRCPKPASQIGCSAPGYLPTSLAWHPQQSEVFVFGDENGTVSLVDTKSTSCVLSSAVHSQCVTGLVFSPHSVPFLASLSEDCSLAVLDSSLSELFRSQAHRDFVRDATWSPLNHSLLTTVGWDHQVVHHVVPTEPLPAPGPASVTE
# Description: For AlphaLISA HTS: the substrate, histone H4 peptide unmethylated at arginine (R) 3 (unmeH4R3) was purchased from AnaSpec (Fremont, CA). The 23-amino acid H4R3 peptide was biotinylated at its N′ terminus: […]-K(biotin)-NH2 (SEQ ID NO: 1). S-adenosyl methionine (SAM) was used as a methyl group donor (New England Biolabs, Ipswich, MA). Compound libraries comprising of FDA-approved drugs, synthetic and semi-synthetic natural products as well as bioactives were collectively purchased from Analyticon Discovery (Rockville, MD), MilliporeSigma (Burlington, MA) and Microsource Discovery Systems Inc (Gaylordsville, CT). Acceptor beads specific for dimethylated H4R3, Donor beads with a streptavidin tag, assay buffer, OptiPlate™ 384-well white bottom plates, TopSeal™-A film to seal the plates and EnVision® Multilabel Reader were sourced from PerkinElmer (Waltham, MA). […]
# A detailed description of optimization of the AlphaLISA HTS screening protocol has already been published previously. […] Alpha signal was then quantified using the EnVision® reader.
# To design a drug screen to check for compounds that had the potential to inhibit PRMT5 methyltransferase activity, the AlphaLISA assay was utilized. […] This emitted AlphaLISA signal is directly proportional to the methyltransferase activity of PRMT5, thus allowing for quantification of its enzymatic activity.
# [1] = system: PDAC cells (PANC1, MiaPaCa2 and AsPC1); experiment: MTT cell viability assay, PDAC cells; assay type: cell-based; details: 4 days
# Procedure: (§1) Cells were grown to 60% density in clear flat-bottom 96-well plates (Corning Inc, Corning, NY) for 24 hours and treated with a range of concentrations of either Clo or Can respectively, followed by incubation for 4 days. 10 μl of MTT dye (Sigma-Aldrich) was added to each well and incubated for 2 hours at 37° C. The media:MTT mixture was then removed and 10 μl DMSO was added per well. Absorbance was measured using Synergy H4 Multi-Mode Reader (BioTek Instruments, Winooski, VT).
# [2] = system: CRC cell lines (HT29, HCT116 and DLD1); experiment: MTT cell viability assay, CRC cells; assay type: cell-based; details: 4 days
# Procedure: as §1
# [3] = system: BC cells (MD-MB-231 and BT20); experiment: MTT cell viability assay, BC cells; assay type: cell-based; details: 4 days
# Procedure: as §1
# [4] = system: PANC1, HT29 and MDA-MB231 cells; experiment: Three-dimensional (3D) colony formation assay; assay type: cell-based; details: increasing concentrations, 72 hours of drug treatment
# Procedure: PANC1 and MDA-MB-231 (1000 cells) as well as HT29 (250 cells) were seeded per well within ultra-low attachment plates (Corning Inc) in media comprising 3% Reduced Growth Factor-Matrigel (BD Biosciences, Franklin Lakes, NJ). Clo and Can were added in a concentration range from 5-100 μM and 5-120 μM respectively after seeding for 48 hours. After 72 hours of drug treatment, the cells were stained using 10% Alamar blue dye (Fisher) and fluorescence was quantified using a Synergy H4 Reader.
# [5] = system: PRMT5-mediated R30 dimethylation of p65 (NF-κB); experiment: Western blot for symmetric dimethylation of p65 at R30; assay type: cell-based; details: PANC1, HT29 and MDA-MB-231 cells; treated at MTT IC50 values; vs untreated
# Procedure: Primary antibodies for symmetric dimethylation at arginine (R) 30 subunit of p65 (detected by generating a customized polyclonal primary antibody in collaboration with GenScript Inc, Piscataway, NJ) and […] (Sigma-Aldrich) with their corresponding secondary antibodies were used.
# PDAC, CRC and BC cells were pelleted post treatment with either Clo or Can in phosphate buffered saline (PBS). Pellets were lysed by overnight incubation at −80° C. as well as addition of lysis buffer [(10 mM Tris-Cl pH 8.0, 1 mM EDTA, 1% Triton X, 0.1% sodium deoxycholate, 0.1% SDS (sodium dodecyl sulfate), 14 mM NaCl, 1 mM phenylmethylsulfonyl fluoride]. Protein concentration for each sample was determined using Protein Assay Reagent (Biorad, Hercules, CA). Equal protein concentrations were run on a 10% SDS-PAGE (polyacrylamide gel electrophoresis) gel and transferred using polyvinylidene fluoride membrane (Thermo Fisher Scientific). Membranes were exposed to respective primary and secondary antibodies at dilutions and times based on manufacturer's instructions. Protein signal was detected using enhanced chemiluminescence (ECL) reagent (PerkinElmer).
# NF-κB activation = experiment: NF-κB luciferase assay; assay type: cell-based; details: increasing concentrations; PANC1, HT29 and MDA-MB-231 cells; 48 hours
# Procedure: The NF-κB luciferase lentiviral construct pLA-NFκBmCMV-luc-H4-puro (containing five tandem copies of the NF-κB site from the IP10 gene) was introduced in the respective cell lines using Lipofectamine™ LTX Reagent and PLUS Reagents (Thermo Fisher Scientific). Luciferase activity was measured after 48 hours (with or without drug treatment) using Reporter Lysis Buffer kit (Promega, Madison, WI) as per manufacturer's instructions and the Synergy H4 Reader.
# [6] = system: IL8 and TNFα mRNA expression; experiment: qRT-PCR of NF-κB target genes IL8 and TNFα; assay type: cell-based; details: PANC1, HT29 and MDA-MB-231 cells; 48 hours; vs untreated
# Procedure: Following treatment with either Clo or Can for 48 hours, total RNA was isolated from the respective cell lines using Trizol as described earlier. First strand complementary DNA was generated using SuperScript III First-Strand Synthesis Kit (Invitrogen, Carlsbad, CA). Following this, qPCR was executed using FastStart Universal SYBR Green kit (Roche, Indianapolis, IN).
# [7] = system: PANC1, HT29 and MCF7 xenografts; experiment: Xenograft tumor growth in NSG mice (PANC1, HT29, MCF7); assay type: in vivo; details: PANC1, HT29 or MCF7 xenografts, 100 mg/kg oral gavage daily
# Procedure: (§2) Male and female NSG mice were obtained from the In Vivo Therapeutics Core at Indiana University School of Medicine. After acclimation for 7 days, NSG mice (5-6 weeks old) were xenografted with Mycoplasma-free PANC1, MCF7 or HT29 cells subcutaneously (1×10^7 PANC1, 3×10^6 MCF7 or 3×10^6 HT29 cells used per mouse in 0.2 ml of a 1:1 mix of serum free DMEM media, or serum free RPMI media and Matrigel). Male mice were xenografted with PANC1 and HT29 cells. Female mice were xenografted with MCF7 cells. 5 mice were randomized in each group when tumor volumes reached ˜50 mm^3. Mice were treated with either vehicle control (10% DMSO, 20% PEG400, 5% Tween 80 and 65% sterile water), 100 mg/kg or 200 mg/kg candesartan cilexetil dissolved in the vehicle, or 100 mg/kg or 200 mg/kg cloperastine dissolved in the vehicle through oral gavage daily. Tumor volumes were measured 4 times per week and body weights were measured twice a week. The study was performed in accordance with the guidelines and standards of the Institutional Animal Care and Use Committee (IACUC)
# [8] = set-up: species or system mice; details: mouse, in vivo, po, 100 mg/kg
# Procedure: as §2
SMILES,IC50 (PRMT5),IC50 [1],IC50 [2],IC50 [3],extent of 3D colony formation [4],dimethylation levels at R30 of p65 [5],activation of NF-κB (luciferase) (NF-κB activation),mRNA expression of IL8 and TNFα [6],tumor sizes over time relative to control mice [7],body weights over the course of treatment [8]
"CCOc1nc2cccc(C(=O)OC(C)OC(=O)OC3CCCCC3)c2n1Cc1ccc(-c2ccccc2-c2nn[nH]n2)cc1 (centres unmarked) [Can, Candesartan cilexetil]",33 µM,~20 µM,15 to 17 µM,18 to 20 µM,marked decrease,reduction in the dimethylation levels at R30,concurrent decrease,significant decrease,remarkably reduced tumor sizes,body weights remained similar
"Cl.Clc1ccc(C(OCCN2CCCCC2)c2ccccc2)cc1 (centres unmarked) [Clo, Cloperastine hydrochloride]",27 µM,~30 µM,18 to 34 µM,26 to 29 µM,marked decrease,reduction in the dimethylation levels at R30,concurrent decrease,significant decrease,significantly reduced tumor sizes,body weights remained similar
